Results on 1 compound are retold here after US20040092532A1, “Use of p38 inhibitors for the treatment of smoke inhalation” (priority 2003, published 2004).

In assay [1] the test system is citric acid-induced cough. As to the kind of experiment: Citric Acid Induced Cough Model (direct antitussive activity). The format is in vivo. The following applies: inhaled citric acid-induced cough, conscious guinea pigs; FIG. 4. The procedure: The directed antitussive activity of the compound in question if first assessed, by a 10 to 30 minute pretreatment period by intraperitoneal injection or a 1 hour pretreatment period for oral administration. The animals (guinea pigs) are then subjected to an inhaled citric acid-induced cough challenge. Inhalation of citric acid (CA; 0.4% for 1 minute) induced 11 to 15 coughs, during the exposure and 12-minute monitoring period in conscious guinea pigs.

Assay [2] deals with antigen-induced hypertussive response to citric acid. Kind of assay: Antigen-Induced Hypertussive Model (ovalbumin, citric acid challenge). The format is in vivo. The following applies: sensitized guinea pigs exposed to inhaled ovalbumin. The procedure: The effects of the compound are then assessed on the hypertussive response that occurs 72 hours post aerosol exposure to antigen or LTD4 exposure. Treatment of the animals occurs with the drug prior and/or after antigen or LTD4 challenge, but not on the day of citric acid challenge. Inhalation of citric acid (CA; 0.4% for 1 minute) induced 11 to 15 coughs, during the exposure and 12-minute monitoring period in conscious guinea pigs.

Assay [3] has as its system LTD4-induced hypertussive response and airway eosinophilia. As to the kind of experiment: LTD4-Induced Hypertussive Model (citric acid challenge). Type of assay: in vivo, guinea pigs. The following applies: oral 30 mg/kg b.i.d., inhaled LTD4 10 ug/ml for 1 minute, 72 hours after exposure. The procedure:
The effects of the compound are then assessed on the hypertussive response that occurs 72 hours post aerosol exposure to antigen or LTD4 exposure. Treatment of the animals occurs with the drug prior and/or after antigen or LTD4 challenge, but not on the day of citric acid challenge. […] Similarly, inhalation of LTD4 (10 ug/ml for 1 minute) increased cough incidence and airway esoinophiles 72 hours after exposure.

Structures are written as SMILES.

For the compound `COc1nccc(-c2c(-c3ccc(F)cc3)ncn2[C@H]2CC[C@H](O)CC2)n1` [Compound I, trans-1-(4-Hydroxycyclohexyl)-4-(4-fluorophenyl)-5-[(2methoxy)pyrimidin-4-yl]imidazole], the direct antitussive effect entry in assay [1] is reported as “no direct antitussive effect”. Moreover, the airway eosinophilia entry in assay [2] (bronchoalveolar lavage) is given as “reduce airway eosinophilia”. In addition, in assay [2] (citric acid challenge), the “hypertussive state (CA-induced cough incidence)” value was “normalizes the hypertussive state”. Moreover, the LTD4-induced eosinophilia result in assay [3] was “blocked the LTD4-induced esoinophilia”. In addition, the “cough response after LTD4” value in assay [3] (FIG. 5) is given as “normalized the cough response”.
